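Values below derive from 48-hour exposures of cells grown in 96-well plates, with endpoints linearly interpolated between the two concentrations bracketing the appropriate inhibition level. The concentration for 50% growth inhibition is given as GI50. Definition used: TGI = concentration required for complete inhibition of growth.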 Where a SMILES comes first, the peptide text is derived from it. Bridges are numbered along the chain shown (N, C = ends). [ ]: non-standard residue; d: D form. ξ: configuration not given here. ξThr(3R) = C[C@@H](O)C(N)C(=O)O; S5 = C=CCCC[C@](C)(N)C(=O)O

Some test systems named below: HL-60(TB) leukemia; HCT-15 colon; SF-295 CNS; A498 renal; MCF7 breast; RXF 393 renal; HCC-2998 colon; SNB-19 CNS; A549 NSCLC; 786-0 renal.
Assay in all cases: NCI anticancer screen, dose series, 48 h

Take `COc1cccc(C2=C(c3cn(C)c4cc(F)ccc34)C(=O)NC2=O)c1`: the GI50 in the experiment with HL-60(TB) leukemia is 13.6 µM; in the experiment with HCT-15 colon it was 12.7 µM; in the experiment with SF-295 CNS, greater than 18.3 µM; in the experiment on A498 renal it was 5.96 µM; in the experiment with MCF7 breast, 7.56 µM; with RXF 393 renal, 8.79 µM. Besides, the GI50 in the experiment with HCC-2998 colon is greater than 25 µM; in the experiment with SNB-19 CNS, greater than 25 µM; with A549 NSCLC, greater than 17.4 µM; in the experiment on 786-0 renal, greater than 18.7 µM. The TGI with HL-60(TB) leukemia, in the experiment with HCT-15 colon, in the experiment on SF-295 CNS, in the experiment with A498 renal, with MCF7 breast and in the experiment with RXF 393 renal was greater than 25 µM throughout. Moreover, the TGI in the experiment with HCC-2998 colon, in the experiment with SNB-19 CNS, in the experiment with A549 NSCLC and in the experiment on 786-0 renal was greater than 25 µM in each case.
On to `COc1cccc(/C=C/c2ccnc3ccccc23)c1OC`, for which the TGI with HL-60(TB) leukemia, with HCT-15 colon, in the experiment on SF-295 CNS, with A498 renal, in the experiment with MCF7 breast and in the experiment on RXF 393 renal was greater than 10 µM in each case. The TGI in the experiment with HCC-2998 colon, with SNB-19 CNS, in the experiment with A549 NSCLC and in the experiment on 786-0 renal was greater than 10 µM in each case.
Take `NC(Cc1c[nH]c2ccc(F)cc12)C(=O)O` (configuration not stated): the GI50 with HL-60(TB) leukemia is 737 µM; in the experiment with HCT-15 colon, 1180 µM; with SF-295 CNS it was 609 µM; in the experiment with A498 renal, 580 µM; in the experiment on MCF7 breast, 911 µM; with RXF 393 renal, 887 µM. The GI50 with HCC-2998 colon is 1810 µM; with SNB-19 CNS, 1680 µM; with A549 NSCLC, 855 µM; with 786-0 renal, 1200 µM. The TGI is greater than 2500 µM in the experiment on HL-60(TB) leukemia; greater than 2500 µM in the experiment with HCT-15 colon; 1500 µM in the experiment with SF-295 CNS; 1630 µM in the experiment with A498 renal; greater than 2500 µM in the experiment with MCF7 breast; greater than 2500 µM in the experiment on RXF 393 renal. Moreover, the TGI with HCC-2998 colon, with SNB-19 CNS, in the experiment on A549 NSCLC and in the experiment with 786-0 renal was greater than 2500 µM in each case.
Turning to `CC(=O)N[C@H](C(=O)N[C@@H](CCCNC(=N)N)C(=O)N[C@@H](CCCCN)C(=O)N[C@@H](CCCNC(=N)N)C(=O)NC(C(=O)N[C@@H](CC(C)C)C(=O)N[C@@H](CCCNC(=N)N)C(=O)N[C@@]1(C)CCC/C=C\CCC[C@@](C)(C(=O)N[C@@H](CCCNC(=N)N)C(=O)N[C@@H](CCC(=O)O)C(=O)N[C@@H](CC(C)C)C(=O)N[C@H](C(=O)N[C@@H](CCC(=O)O)C(N)=O)C(C)C)NC(=O)[C@H](CCC(N)=O)NC(=O)[C@H](CC(C)C)NC(=O)[C@H](CC(C)C)NC1=O)[C@@H](C)O)C(C)C` (stereo partly drawn) (Ac-VRKR[ξThr(3R)]LR[S5]LLQ[S5]RELVE-NH2; staple (Z) 8-12), the GI50 was 7.23 µM in the experiment on HL-60(TB) leukemia; 6.22 µM with HCT-15 colon; 4.69 µM in the experiment with SF-295 CNS; 8.69 µM in the experiment with A498 renal; 3.41 µM with MCF7 breast; 2.7 µM with RXF 393 renal. Further, the GI50 is 7.67 µM in the experiment with HCC-2998 colon, 7.94 µM in the experiment with SNB-19 CNS, 6.42 µM in the experiment on A549 NSCLC and 4.2 µM in the experiment with 786-0 renal. In addition, the TGI in the experiment with HL-60(TB) leukemia stood at 19.2 µM; in the experiment with HCT-15 colon, 14.7 µM; with SF-295 CNS, 12.1 µM; in the experiment on A498 renal, 18.4 µM; in the experiment on MCF7 breast, 11.7 µM; in the experiment with RXF 393 renal, 12.1 µM. Moreover, the TGI came to 18.2 µM in the experiment on HCC-2998 colon, 17.9 µM with SNB-19 CNS, 14.3 µM in the experiment with A549 NSCLC and 12.6 µM in the experiment on 786-0 renal.
`COc1c(O)cc2c(c1O)C(=O)C1=C(CCCC1)C2=O`: the TGI in the experiment on HL-60(TB) leukemia was 31.9 µM; in the experiment with HCT-15 colon it was greater than 100 µM; in the experiment with SF-295 CNS, 65.2 µM; in the experiment on A498 renal it was 47.7 µM; with MCF7 breast, 80.7 µM; with RXF 393 renal, 45 µM. Also, the TGI in the experiment with HCC-2998 colon amounted to 47.7 µM; in the experiment on SNB-19 CNS, 96.9 µM; in the experiment with A549 NSCLC, 87.3 µM; in the experiment with 786-0 renal, 49.4 µM.
`CCCCN=C(N)c1ccc(N2CCCN(c3ccc(C(N)=NCCCC)cc3)CC2)cc1`: the TGI in the experiment on HL-60(TB) leukemia is 0.159 µM; in the experiment with HCT-15 colon, greater than 100 µM; with SF-295 CNS it was 57.6 µM; with A498 renal, 30.3 µM; in the experiment on MCF7 breast, greater than 100 µM; with RXF 393 renal, greater than 68.3 µM. The TGI in the experiment with HCC-2998 colon was 58.2 µM; with SNB-19 CNS, greater than 100 µM; in the experiment on A549 NSCLC, greater than 100 µM; in the experiment on 786-0 renal, greater than 100 µM. Moreover, the GI50 in the experiment with HCT-15 colon is greater than 100 µM; in the experiment on SF-295 CNS, 6.39 µM; in the experiment on A498 renal it was 0.529 µM; in the experiment on MCF7 breast it was 7.44 µM; in the experiment with HCC-2998 colon, 8.88 µM; in the experiment with SNB-19 CNS, greater than 21.4 µM. Moreover, the results for the GI50 in the experiment on A549 NSCLC and in the experiment on 786-0 renal were 4.07 µM and greater than 74.6 µM, respectively.
For `COc1ccc(Cn2cc3c(c2)-c2oncc2CC3)cc1OC`, the GI50 in the experiment with HL-60(TB) leukemia is 0.126 µM; in the experiment on HCT-15 colon it was 0.214 µM; in the experiment on SF-295 CNS, 0.15 µM; in the experiment on A498 renal it was 0.102 µM; in the experiment on MCF7 breast, 0.191 µM; in the experiment on RXF 393 renal it was 0.173 µM. In addition, the GI50 is 0.172 µM with HCC-2998 colon, 0.258 µM in the experiment with SNB-19 CNS, 0.283 µM in the experiment on A549 NSCLC and 0.536 µM in the experiment with 786-0 renal. The TGI is 0.439 µM with HL-60(TB) leukemia; greater than 50 µM in the experiment on HCT-15 colon; 1.71 µM in the experiment on SF-295 CNS; 0.678 µM in the experiment with A498 renal; greater than 41 µM in the experiment on MCF7 breast; 2.54 µM in the experiment on HCC-2998 colon. The TGI was greater than 50 µM in the experiment with SNB-19 CNS, 48.4 µM in the experiment on A549 NSCLC and greater than 21.2 µM in the experiment with 786-0 renal.
Consider `O=c1c2ccccc2nc(-c2ccccc2Cl)n1-c1nnc(C(F)(F)F)s1`, for which the GI50 in the experiment on HL-60(TB) leukemia was 2.38 µM; in the experiment with HCT-15 colon, 2.94 µM; in the experiment with SF-295 CNS it was 2.44 µM; in the experiment with A498 renal, 1.77 µM; in the experiment with MCF7 breast it was 3.03 µM; with RXF 393 renal it was 2.77 µM. Besides, the GI50 was 4.24 µM with HCC-2998 colon, 3.66 µM with SNB-19 CNS, 3.26 µM with A549 NSCLC and 3.18 µM in the experiment with 786-0 renal. Besides, the TGI in the experiment on HL-60(TB) leukemia was 8.51 µM; with HCT-15 colon, 15 µM; in the experiment on SF-295 CNS it was 9.11 µM; with A498 renal, 5.07 µM; with MCF7 breast it was greater than 100 µM; in the experiment with RXF 393 renal, 14.4 µM. Besides, the TGI with HCC-2998 colon is 19.6 µM; with SNB-19 CNS it was greater than 100 µM; in the experiment on A549 NSCLC it was greater than 100 µM; in the experiment on 786-0 renal, 11.4 µM.
